Read-outs that look alike come from different tables or passages of the source. Values belong to the compound of their own block, whether it stands above or below them.
Experiments:
[1] = target: T1, mushroom tyrosinase (Agaricus bisporus, UniProt C7FF04); experiment: Mushroom tyrosinase inhibition assay (L-DOPA oxidation to dopachrome); format: biochemical
T1 construct: purchased Sigma Aldrich T3824-250 KU
Protocol: Both were dissolved in 20 mM phosphate buffer solution, pH 6.8. First, 20 µL from a freshly prepared stock solution of mushroom tyrosinase (270 U/mL) and 75 µL of test compounds stock solutions (20 mM PBS, pH 6.8) were mixed and pre-incubated at 37 °C for 15 min. Then, 30 µL of 6 mM L-DOPA was added to the reaction mixture, followed by an incubation of 20 min at 37 °C. During this reaction, L-DOPA is converted to dopachrome (a precursor of melanin), visually detected by the change of color from colorless to orange/brown, resulting in an absorbance increase, recorded spectrophotometrically at 475 nm on a Flex Station 3 Multi-Mode Microplate Reader (Molecular Devices). The inhibition rate was calculated as follows:(1) % Tyrosinase inhibition=(1−A−B/C−D)×100 where A and B represent the final and initial optical densities of the reaction in the presence of the tested compounds, while C and D represent the final and initial optical densities of the reaction in their absence, respectively. […] Experiments were carried out in triplicate and repeated at least 3 times.

[2] = pH 7.4, cited from earlier work; for fraction in quinoidal base form: 7-A^− and 8-A, ref [20],[22]
[3] = target: T1, mushroom tyrosinase; experiment: Kinetic analysis of tyrosinase inhibition; format: biochemical
Excerpt: GraphPad Prism 8.2.1 was used to fit the experimental data to these four models, all of them compared with each other. Akaike’s Information Criteria (AICc) approach was used to compare the fit of competitive, uncompetitive, and noncompetitive models, while extra sum-of-squares F test was used to compare the mixed model with the remaining three models, as they are considered to be special cases of the mixed model general equation.
Additionally, the mixed model fitting includes an extra parameter, the alpha (α) value, which represents a useful quantitative indicator of the mechanism of inhibition.
Initial velocity of the enzymatic reaction, V0, was determined from the slope of the curve at the initial phase of the reaction, in the presence of increasing concentrations of each compound (25–100 μM) and L-dopa (0.10–1.0 mM) and then plotted as a function of the corresponding substrate concentration, [S]. GraphPad Prism 8.2.1 program was used to fit the obtained data into the Michaelis–Menten model and to determine the kinetic parameters Vmax and KM (maximal reaction velocity and Michaelis–Menten constant, respectively).

[4] = 50 µM compound, substrate L-DOPA, pH 6.8, 37 °C, mean ± SEM, read-out: % mTYR Inhibition at 50 µM

T1 sequence (C7FF04 1-392): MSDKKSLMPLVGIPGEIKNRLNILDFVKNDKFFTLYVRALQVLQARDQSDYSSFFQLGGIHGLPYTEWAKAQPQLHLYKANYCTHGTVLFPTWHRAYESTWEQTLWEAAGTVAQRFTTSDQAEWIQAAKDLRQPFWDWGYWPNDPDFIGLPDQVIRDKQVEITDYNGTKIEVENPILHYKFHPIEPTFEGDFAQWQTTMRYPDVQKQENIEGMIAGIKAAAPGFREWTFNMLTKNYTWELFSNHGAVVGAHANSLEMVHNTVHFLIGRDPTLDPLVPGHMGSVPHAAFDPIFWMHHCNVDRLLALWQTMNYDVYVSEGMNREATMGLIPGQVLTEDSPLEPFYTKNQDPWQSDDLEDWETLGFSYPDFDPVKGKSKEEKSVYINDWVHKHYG

inhibition at 50 µM [1, 4]: 22.1 ± 0.962%
inhibition at 200 µM ([1]; 200 μM compound, L-DOPA oxidation (Figure 3), read-out: inhibition rate at 200 μM): ~40%
SMILES: O=C(O)c1cc2c(O[C@@H]3O[C@H](CO)[C@@H](O)[C@H](O)[C@H]3O)c(-c3ccc(O)c(O)c3)oc3cc(=O)cc(o1)c32 [Compound 5, carboxypyranocyanidin-3-O-glucoside]
fraction under the form A^2− ([2]; ref [20],[21]): ~100%

inhibition at 50 µM [1, 4]: 9.74 ± 3.36%
SMILES: COc1cc(-c2oc3cc(=O)cc4oc(C)cc(c2O[C@@H]2O[C@H](CO)[C@@H](O)[C@H](O)[C@H]2O)c43)cc(OC)c1O [Compound 8, methylpyranomalvidin-3-O-glucoside]
fraction in quinoidal base form [2]: 80%

SMILES: Oc1cc(O)c2ccc(-c3ccc(O)c(O)c3)[o+]c2c1 [Compound 1, luteolinidin]
IC50 [1]: 39.2 ± 2.71 µM
inhibition at 50 µM ([1]; pH 6.8, read-out: % mTYR Inhibition at 50 µM): 58.5 ± 2.08%
Ki [3]: 15.1 ± 1.18 µM
Vmax ([3]; L-DOPA, inhibitor 25 μM): 45.8 µM/min
Vmax ([3]; L-DOPA, inhibitor 50 μM): 45.8 µM/min
Vmax ([3]; L-DOPA, inhibitor 75 μM): 45.8 µM/min
Vmax ([3]; L-DOPA, inhibitor 100 μM): 45.8 µM/min
α ([3]; alpha value from fitting of mixed model equation): 21.00
Inhibition Type ([3]; diphenolase activity, L-DOPA, model comparison in GraphPad Prism): Competitive

inhibition at 50 µM [1, 4]: 16.2 ± 1.14%
SMILES: Cc1cc2c(O[C@@H]3O[C@H](CO)[C@@H](O)[C@H](O)[C@H]3O)c(-c3ccc(O)c(O)c3)oc3cc(=O)cc(o1)c32 [Compound 7, methylpyranocyanidin-3-O-glucoside]
fraction in quinoidal base form [2]: 80%

— article PMC8230073, “The Role of Anthocyanins, Deoxyanthocyanins and Pyranoanthocyanins on the Modulation of Tyrosinase Activity: An In Vitro and In Silico Approach” (International Journal of Molecular Sciences, 2021)
